Results as given in the NIST ThermoML archive (doi:10.1016/j.jct.2016.02.010).
± gives the expanded uncertainty stated by the source.

Assays:
[1] = Molar enthalpy of transition or fusion; conditions: Crystal; DSC
[2] = molar heat capacity at constant pressure; conditions: 101.33 kPa, Small sample (50 mg) DSC
[3] = Crystal; for Normal melting temperature: DTA; for vapor or sublimation pressure: Calculated from knudsen effusion weight loss

CC(O)c1ccccc1 (stereo not drawn) [1-phenylethanol]
Conditions | Molar enthalpy of transition or fusion [kcal/mol] | Normal melting temperature [°C]
[1] | 3.82 ± 0.478 | –
[3] | – | 18.6 ± 0.8

[2], Liquid
Conditions | molar heat capacity at constant pressure [J/K/mol]
297.15 K | 262.4 ± 8.7
298.15 K | 263.1 ± 8.7
299.15 K | 263.9 ± 8.8
300.15 K | 264.6 ± 8.8
301.15 K | 265.1 ± 8.8
302.15 K | 265.8 ± 8.8
303.15 K | 267.1 ± 8.9
304.15 K | 267.9 ± 8.9
305.15 K | 268.5 ± 8.9
306.15 K | 269.4 ± 8.9
307.15 K | 269.8 ± 8.9
308.15 K | 271 ± 9
309.15 K | 271.7 ± 9
310.15 K | 272.4 ± 9
311.15 K | 273 ± 9.1
312.15 K | 273.7 ± 9.1
313.15 K | 274.7 ± 9.1
314.15 K | 275.1 ± 9.1
315.15 K | 275.7 ± 9.1
316.15 K | 276.4 ± 9.2
317.15 K | 277.3 ± 9.2
318.15 K | 278.2 ± 9.2
319.15 K | 279.1 ± 9.3
320.15 K | 279.6 ± 9.3
321.15 K | 280.3 ± 9.3
322.15 K | 281 ± 9
323.15 K | 281.5 ± 9.3
324.15 K | 282.2 ± 9.4
325.15 K | 283 ± 9.4
326.15 K | 283.9 ± 9.4
327.15 K | 284.4 ± 9.4
328.15 K | 284.8 ± 9.4
329.15 K | 285.4 ± 9.5
330.15 K | 286 ± 9.5
331.15 K | 286.7 ± 9.5
332.15 K | 287.3 ± 9.5
333.15 K | 288.1 ± 9.6
334.15 K | 288.9 ± 9.6
335.15 K | 289.6 ± 9.6
336.15 K | 290.2 ± 9.6
337.15 K | 290.6 ± 9.6
338.15 K | 291.2 ± 9.7
339.15 K | 292 ± 9.7
340.15 K | 292.5 ± 9.7
341.15 K | 293 ± 9.7
342.15 K | 293.6 ± 9.7
343.15 K | 294.2 ± 9.8
344.15 K | 295.2 ± 9.8
345.15 K | 295.7 ± 9.8
346.15 K | 296.3 ± 9.8
347.15 K | 296.9 ± 9.8
348.15 K | 297.5 ± 9.9
349.15 K | 298.1 ± 9.9
350.15 K | 298.3 ± 9.9
351.15 K | 298.8 ± 9.9
352.15 K | 299.2 ± 9.9
353.15 K | 300.7 ± 10
354.15 K | 300.8 ± 10
355.15 K | 301.7 ± 10
356.15 K | 302.8 ± 10
357.15 K | 303.4 ± 10
358.15 K | 303.8 ± 10
359.15 K | 303.9 ± 10
360.15 K | 304.5 ± 10
361.15 K | 305.3 ± 10
362.15 K | 305.7 ± 10
363.15 K | 306.1 ± 10
364.15 K | 307 ± 10
365.15 K | 307.7 ± 10
366.15 K | 308.4 ± 10
367.15 K | 308.6 ± 10
368.15 K | 308.9 ± 10
369.15 K | 309.5 ± 10
370.15 K | 310.3 ± 10
371.15 K | 311.1 ± 10
372.15 K | 311.6 ± 10
373.15 K | 311.8 ± 10

OC(c1ccccc1)c1ccccc1 [diphenylmethanol]
Conditions | Molar enthalpy of transition or fusion [kcal/mol] | Normal melting temperature [°C]
[1] | 5.66 ± 0.12 | –
[3] | – | 66.2 ± 0.8

[2], Crystal
Conditions | molar heat capacity at constant pressure [J/K/mol]
259.15 K | 202.8 ± 6.7
260.15 K | 203.3 ± 6.7
261.15 K | 203.9 ± 6.8
262.15 K | 204.6 ± 6.8
263.15 K | 205.2 ± 6.8
264.15 K | 206.1 ± 6.8
265.15 K | 206.8 ± 6.9
266.15 K | 207.6 ± 6.9
267.15 K | 208.5 ± 6.9
268.15 K | 209.5 ± 7
269.15 K | 210.3 ± 7
270.15 K | 211.1 ± 7
271.15 K | 211.7 ± 7
272.15 K | 212.5 ± 7.1
273.15 K | 213.8 ± 7.1
274.15 K | 214.1 ± 7.1
275.15 K | 215.2 ± 7.1
276.15 K | 215.9 ± 7.2
277.15 K | 216.9 ± 7.2
278.15 K | 216.8 ± 7.2
279.15 K | 217.6 ± 7.2
280.15 K | 218.5 ± 7.2
281.15 K | 219.4 ± 7.3
282.15 K | 220.2 ± 7.3
283.15 K | 221 ± 7.3
284.15 K | 221.8 ± 7.4
285.15 K | 222.8 ± 7.4
286.15 K | 223.3 ± 7.4
287.15 K | 224.3 ± 7.4
288.15 K | 225 ± 7.5
289.15 K | 225.8 ± 7.5
290.15 K | 226.5 ± 7.5
291.15 K | 227.4 ± 7.5
292.15 K | 228.2 ± 7.6
293.15 K | 229.1 ± 7.6
294.15 K | 229.9 ± 7.6
295.15 K | 230.7 ± 7.7
296.15 K | 231.9 ± 7.7
297.15 K | 232 ± 7.7
298.15 K | 233 ± 7.7
299.15 K | 233.7 ± 7.8
300.15 K | 234.5 ± 7.8
301.15 K | 235.4 ± 7.8
302.15 K | 236.2 ± 7.8
303.15 K | 237 ± 7.9
304.15 K | 237.8 ± 7.9
305.15 K | 238.7 ± 7.9
306.15 K | 239.6 ± 7.9
307.15 K | 240.7 ± 8
308.15 K | 241.8 ± 8
309.15 K | 242.5 ± 8
310.15 K | 243.3 ± 8.1
311.15 K | 244.2 ± 8.1
312.15 K | 245.2 ± 8.1
313.15 K | 246 ± 8.2
314.15 K | 247 ± 8.2
315.15 K | 247.8 ± 8.2
316.15 K | 248.8 ± 8.3
317.15 K | 249.8 ± 8.3
318.15 K | 250.7 ± 8.3
319.15 K | 251.7 ± 8.4
320.15 K | 252.5 ± 8.4
321.15 K | 253.5 ± 8.4
322.15 K | 254.4 ± 8.4
323.15 K | 255.3 ± 8.5
324.15 K | 256.4 ± 8.5
325.15 K | 257.4 ± 8.5
326.15 K | 258.5 ± 8.6
327.15 K | 259.5 ± 8.6
328.15 K | 260.7 ± 8.6
329.15 K | 261.8 ± 8.7
330.15 K | 263.1 ± 8.7
331.15 K | 265.1 ± 8.8
332.15 K | 267 ± 8.9

Conditions | mass density [kg/m3]
[3], 298 K, 101.33 kPa, Pycnometric method | 1210 ± 40

[3]
Conditions | vapor or sublimation pressure [kPa]
301.97 K | 0.000128 ± 7e-06
304.52 K | 0.00018 ± 1e-05
305.16 K | 0.000198 ± 1.1e-05
308.1 K | 0.00028 ± 1.5e-05
311.41 K | 0.000446 ± 2.4e-05
314.06 K | 0.00061 ± 3e-05
317.02 K | 0.00091 ± 5e-05
